These results are taken from patent US20160345553A1, “TRANSGENIC MOUSE MODELS FOR MC4R” (UNIVERSITE DE MONTREAL, priority 2012, published 2016).

In assay [1] the test system is hMC4R (R165W) knock-in mice. The assay can be described thus: In vivo test of DCPMP on knock-in mouse model carrying human mutant form of MC4R (food intake, weight loss). Conditions: 30 mg per kg i.p. one dose daily for 9 days. As to the method:
(§1) Mice were intraperitoneally injected one dose daily with vehicle or DCPMP at 30 mg per kg one hour before light off, for 9 days. Data are the average daily food intake (A, B. C), or the mean of the total body weight loss [total body weight before treatment—total body weight after 9 days treatment] (D), for each experimental group, Data are expressed as Mean±SEM. Numbers of animal per genotype are indicated in brackets.
(§2) Mice were intraperitoneally injected one dose daily with vehicle or N-((2R)-3(2,4-dichlorophenyl)-1-(4-(2-((1-methoxypropan-2-ylamino)methyl)phenyl)piperazin-1-yl)-1-oxopropan-2-yl)propionamide (DCPMP) at 30 mg per kg one hour before light off, for 9 days.
(§3) Animals were individually housed for 4 days prior to starting experiments. […] All animals were weighed prior to compound injection, and doses were normalized to individual animal body weight. Mice were intraperitoneally injected one dose daily with vehicle (1% Tween 80) or DCPMP at 30 mg per kg one hour before lights off (at 5:00 PM), for 9 days. Weight was monitored every 3 days during treatment and after stopping treatment. Food intake was measured during the recovery time for 7 days. Data are the average daily food intake or the mean of total body weight loss [total body weight before treatment—total body weight after 9 days treatment].

Assay [2] has as its system non-transgenic littermate mice. The assay can be described thus: In vivo test of DCPMP in non-transgenic littermate mice (food intake). Also on record: species or system mouse. Particulars: at the beginning of DCPMP treatment, 30 mg per kg i.p. daily. The method, then:
as §1, §2, §3

Molecules are shown by their SMILES. A value given as a limit tells only on which side of the number the result lay.

Consider `CCC(=O)N[C@H](Cc1ccc(Cl)cc1Cl)C(=O)N1CCN(c2ccccc2CNC(C)COC)CC1` (stereo partly drawn) [DCPMP, N-((2R)-3(2,4-dichlorophenyl)-1-(4-(2-((1-methoxypropan-2-ylamino)methyl)phenyl)piperazin-1-yl)-1-oxopropan-2-yl)propionamide], for which the food intake entry in assay [1] (hMC4R (R165W) male mice) is “reducing food intake”. For the same compound, the “weight loss, % of total weight” value in assay [1] (initially overweight heterozygous hMC4R (R165W) mice) is listed as “up to 13%”; in assay [1] (initially overweight homozygous hMC4R (R165W) mice), at most 15%. The food consumption entry in assay [2] is “slightly reduced”.
